This passage reports remaining binding results from PMC6437697 (Journal of Medicinal Chemistry, 2019).

The structures appear in SMILES notation.

Common to all, as to assay: KINOMEscan
Holding throughout (assay type): binding
What all share (settings): read-out: % control activity remaining

One assay concerns the target T1, ULK3 (Homo sapiens, UniProt Q6PHR2).
T1 construct: purchased Eurofins DiscoverX KINOMEscan
T1 sequence (Q6PHR2 1-472): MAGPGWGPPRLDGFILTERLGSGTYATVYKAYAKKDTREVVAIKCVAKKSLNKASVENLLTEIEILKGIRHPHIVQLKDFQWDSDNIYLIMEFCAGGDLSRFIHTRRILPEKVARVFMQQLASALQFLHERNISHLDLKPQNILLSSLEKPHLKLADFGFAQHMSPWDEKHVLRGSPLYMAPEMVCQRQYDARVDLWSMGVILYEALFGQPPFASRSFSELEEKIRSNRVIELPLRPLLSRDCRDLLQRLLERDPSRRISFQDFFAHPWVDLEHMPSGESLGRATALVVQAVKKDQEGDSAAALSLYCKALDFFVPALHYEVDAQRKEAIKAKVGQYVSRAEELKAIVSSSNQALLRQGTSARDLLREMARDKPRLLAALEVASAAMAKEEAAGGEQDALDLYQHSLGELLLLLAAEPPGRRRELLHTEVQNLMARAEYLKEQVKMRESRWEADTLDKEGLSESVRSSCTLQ

The target in the next assay is T2, GAK (Homo sapiens, UniProt O14976).
T2 construct: purchased Eurofins DiscoverX KINOMEscan
T2 sequence (O14976 1-1311): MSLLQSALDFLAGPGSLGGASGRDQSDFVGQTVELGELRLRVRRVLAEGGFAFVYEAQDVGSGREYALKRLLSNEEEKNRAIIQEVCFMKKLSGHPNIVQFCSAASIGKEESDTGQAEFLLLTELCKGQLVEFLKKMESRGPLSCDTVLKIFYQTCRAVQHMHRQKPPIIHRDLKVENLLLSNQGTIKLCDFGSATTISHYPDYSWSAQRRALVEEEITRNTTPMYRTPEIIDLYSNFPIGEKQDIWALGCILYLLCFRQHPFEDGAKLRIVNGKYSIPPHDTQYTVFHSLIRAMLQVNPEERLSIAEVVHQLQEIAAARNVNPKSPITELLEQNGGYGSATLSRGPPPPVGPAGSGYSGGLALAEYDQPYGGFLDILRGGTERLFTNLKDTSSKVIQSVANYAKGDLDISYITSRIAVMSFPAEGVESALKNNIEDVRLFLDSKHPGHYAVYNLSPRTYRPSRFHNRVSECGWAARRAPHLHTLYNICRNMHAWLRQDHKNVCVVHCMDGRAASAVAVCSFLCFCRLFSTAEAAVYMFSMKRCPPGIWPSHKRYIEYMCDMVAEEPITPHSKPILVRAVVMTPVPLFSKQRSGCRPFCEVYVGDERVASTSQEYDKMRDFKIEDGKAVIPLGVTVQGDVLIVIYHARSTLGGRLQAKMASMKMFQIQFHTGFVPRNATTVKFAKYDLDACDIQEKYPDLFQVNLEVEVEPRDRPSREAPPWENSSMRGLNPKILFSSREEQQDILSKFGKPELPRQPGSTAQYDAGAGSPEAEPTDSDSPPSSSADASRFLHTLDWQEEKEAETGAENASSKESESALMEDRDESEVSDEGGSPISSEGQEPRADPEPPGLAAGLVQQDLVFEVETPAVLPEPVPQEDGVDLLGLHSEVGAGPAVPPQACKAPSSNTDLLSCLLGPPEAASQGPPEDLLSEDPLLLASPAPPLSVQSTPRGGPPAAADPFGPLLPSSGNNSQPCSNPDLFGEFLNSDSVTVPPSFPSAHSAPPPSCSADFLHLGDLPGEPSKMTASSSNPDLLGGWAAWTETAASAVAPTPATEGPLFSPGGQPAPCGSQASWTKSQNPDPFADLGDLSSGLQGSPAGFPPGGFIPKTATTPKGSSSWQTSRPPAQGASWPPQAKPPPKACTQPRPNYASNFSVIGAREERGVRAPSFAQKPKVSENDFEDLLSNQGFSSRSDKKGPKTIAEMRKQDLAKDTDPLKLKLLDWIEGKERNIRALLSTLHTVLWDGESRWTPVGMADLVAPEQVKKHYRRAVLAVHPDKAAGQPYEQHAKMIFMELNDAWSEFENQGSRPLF

Assay [1] concerns the target T3, ABL1(H396P)-nonphosphorylated (Homo sapiens, UniProt P00519, H396P).
T3 construct: purchased Eurofins DiscoverX KINOMEscan

In a further assay the target is T4, RIPK1 (Homo sapiens, UniProt Q13546).
T4 construct: purchased Eurofins DiscoverX KINOMEscan
T4 sequence (Q13546 1-671): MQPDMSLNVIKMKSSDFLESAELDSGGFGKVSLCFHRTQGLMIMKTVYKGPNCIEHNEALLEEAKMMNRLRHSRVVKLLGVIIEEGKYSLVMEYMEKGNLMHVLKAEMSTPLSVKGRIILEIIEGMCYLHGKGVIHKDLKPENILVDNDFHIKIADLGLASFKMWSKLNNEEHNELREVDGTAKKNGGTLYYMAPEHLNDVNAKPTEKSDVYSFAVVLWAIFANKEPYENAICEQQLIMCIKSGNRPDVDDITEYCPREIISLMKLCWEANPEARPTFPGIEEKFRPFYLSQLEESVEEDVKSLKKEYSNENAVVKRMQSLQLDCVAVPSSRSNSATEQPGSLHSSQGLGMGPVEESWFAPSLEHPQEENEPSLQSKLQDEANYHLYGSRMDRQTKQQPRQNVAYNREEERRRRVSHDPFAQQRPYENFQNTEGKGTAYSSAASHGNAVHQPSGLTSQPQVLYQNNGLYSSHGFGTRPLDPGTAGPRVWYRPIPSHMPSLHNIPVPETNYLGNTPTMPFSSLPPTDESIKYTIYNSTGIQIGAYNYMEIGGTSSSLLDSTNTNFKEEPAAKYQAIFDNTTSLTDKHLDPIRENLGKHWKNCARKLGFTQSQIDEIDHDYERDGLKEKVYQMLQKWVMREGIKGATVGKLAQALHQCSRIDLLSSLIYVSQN

The target of another assay is T5, KIT (Homo sapiens, UniProt P10721).
T5 construct: purchased Eurofins DiscoverX KINOMEscan
T5 sequence (P10721 26-976): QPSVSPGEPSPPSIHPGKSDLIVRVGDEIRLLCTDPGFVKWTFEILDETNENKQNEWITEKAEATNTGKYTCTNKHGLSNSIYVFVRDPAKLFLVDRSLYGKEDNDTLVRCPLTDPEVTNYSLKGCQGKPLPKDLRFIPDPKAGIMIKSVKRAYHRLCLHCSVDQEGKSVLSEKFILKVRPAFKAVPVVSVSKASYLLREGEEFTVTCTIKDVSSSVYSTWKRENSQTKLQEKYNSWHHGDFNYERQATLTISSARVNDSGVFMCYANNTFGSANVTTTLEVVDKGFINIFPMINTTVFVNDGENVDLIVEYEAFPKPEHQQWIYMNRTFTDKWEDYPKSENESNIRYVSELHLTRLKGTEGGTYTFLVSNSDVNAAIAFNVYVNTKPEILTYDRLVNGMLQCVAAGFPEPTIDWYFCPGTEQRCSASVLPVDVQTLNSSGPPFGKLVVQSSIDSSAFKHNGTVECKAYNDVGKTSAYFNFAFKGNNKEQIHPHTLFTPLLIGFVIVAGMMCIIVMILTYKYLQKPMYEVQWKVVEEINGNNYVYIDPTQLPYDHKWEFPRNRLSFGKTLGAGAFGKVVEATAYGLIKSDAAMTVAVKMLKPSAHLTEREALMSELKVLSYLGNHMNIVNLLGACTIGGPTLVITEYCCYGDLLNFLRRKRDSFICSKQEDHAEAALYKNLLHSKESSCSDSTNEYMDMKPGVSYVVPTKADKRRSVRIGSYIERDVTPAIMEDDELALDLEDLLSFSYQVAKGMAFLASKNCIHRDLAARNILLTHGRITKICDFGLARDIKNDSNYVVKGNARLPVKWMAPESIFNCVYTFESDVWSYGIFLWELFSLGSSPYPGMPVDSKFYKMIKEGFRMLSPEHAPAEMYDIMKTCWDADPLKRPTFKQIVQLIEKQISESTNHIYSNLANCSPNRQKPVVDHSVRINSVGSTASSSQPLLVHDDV

Take `Clc1cc(NCC2CC2)c2ncc(-c3ccc4[nH]ncc4c3)n2n1` [compound 2, 6-Chloro-N-(cyclopropylmethyl)-3-(1H-indazol-5-yl)imidazo[1,2-b]pyridazin-8-amine]: the remaining binding at 1 µM at ULK3 stood at 78%; at GAK, 8.8%; in assay [1], 74%; on RIPK1 it was 91%; at KIT it was 1.6%.
Taken in the same sequence, the figures for `O=C(CN1CCOCC1)N[C@H]1CC[C@H](Nc2cc(Cl)nn3c(-c4ccc5[nH]ncc5c4)cnc23)CC1` [compound 26] were 95%, 10%, 16%, 74% and 0%.
Taken in the same sequence, the figures for `CN1CCC(CNc2cc(Cl)nn3c(-c4cc5nc(Nc6ccccc6)[nH]c5cc4F)cnc23)CC1` [compound 31, 6-Chloro-3-(6-fluoro-2-(phenylamino)-1H-benzo[d]imidazol-5-yl)-N-((1-methylpiperidin-4-yl)methyl)imidazo[1,2-b]pyridazin-8-amine] were 68%, 33%, 42%, 94% and 68%.
